For 32 compounds, Ki results are on record in US20220002314A1 (priority 2018, published 2022).

Where two headings read alike, the source gives them in different places.

The target in test [1] is Human α2δ-1 subunit of Cav2.2 calcium channel (Homo sapiens, UniProt P54289). The test can be described thus: biochemical. The format is binding.
The next test addresses Human μ-opioid receptor (Homo sapiens, UniProt P35372). Briefly: biochemical. The format is binding.

Sequence of Human α2δ-1 subunit of Cav2.2 calcium channel (P54289 25-1103): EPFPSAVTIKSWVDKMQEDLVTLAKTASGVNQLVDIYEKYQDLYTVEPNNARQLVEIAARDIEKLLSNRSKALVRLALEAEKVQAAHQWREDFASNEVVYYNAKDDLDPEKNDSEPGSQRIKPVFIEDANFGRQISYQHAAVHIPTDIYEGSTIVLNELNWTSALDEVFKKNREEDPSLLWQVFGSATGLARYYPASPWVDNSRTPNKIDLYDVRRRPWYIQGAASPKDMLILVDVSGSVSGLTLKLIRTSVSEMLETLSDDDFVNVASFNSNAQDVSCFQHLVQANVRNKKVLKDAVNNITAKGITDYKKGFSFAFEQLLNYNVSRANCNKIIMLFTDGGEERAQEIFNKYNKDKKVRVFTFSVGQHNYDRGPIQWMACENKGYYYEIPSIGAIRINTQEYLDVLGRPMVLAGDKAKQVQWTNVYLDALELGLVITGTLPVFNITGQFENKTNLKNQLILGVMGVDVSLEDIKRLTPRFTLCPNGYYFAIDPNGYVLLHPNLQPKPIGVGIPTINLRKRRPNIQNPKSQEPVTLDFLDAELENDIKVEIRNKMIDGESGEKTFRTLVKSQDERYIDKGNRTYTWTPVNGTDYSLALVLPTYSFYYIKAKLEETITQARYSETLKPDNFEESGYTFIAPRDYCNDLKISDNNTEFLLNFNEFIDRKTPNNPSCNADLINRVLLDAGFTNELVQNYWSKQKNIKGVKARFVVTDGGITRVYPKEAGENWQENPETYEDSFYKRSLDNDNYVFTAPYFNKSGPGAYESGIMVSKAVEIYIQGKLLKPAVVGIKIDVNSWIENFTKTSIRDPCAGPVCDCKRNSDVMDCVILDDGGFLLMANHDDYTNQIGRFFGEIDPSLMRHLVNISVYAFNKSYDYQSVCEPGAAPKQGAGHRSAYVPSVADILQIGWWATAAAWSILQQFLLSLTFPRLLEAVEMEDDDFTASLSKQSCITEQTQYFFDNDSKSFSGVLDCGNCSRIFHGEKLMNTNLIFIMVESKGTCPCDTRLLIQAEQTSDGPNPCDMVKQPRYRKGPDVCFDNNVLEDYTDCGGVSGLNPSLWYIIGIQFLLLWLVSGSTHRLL
Sequence of Human μ-opioid receptor (P35372 whole entry): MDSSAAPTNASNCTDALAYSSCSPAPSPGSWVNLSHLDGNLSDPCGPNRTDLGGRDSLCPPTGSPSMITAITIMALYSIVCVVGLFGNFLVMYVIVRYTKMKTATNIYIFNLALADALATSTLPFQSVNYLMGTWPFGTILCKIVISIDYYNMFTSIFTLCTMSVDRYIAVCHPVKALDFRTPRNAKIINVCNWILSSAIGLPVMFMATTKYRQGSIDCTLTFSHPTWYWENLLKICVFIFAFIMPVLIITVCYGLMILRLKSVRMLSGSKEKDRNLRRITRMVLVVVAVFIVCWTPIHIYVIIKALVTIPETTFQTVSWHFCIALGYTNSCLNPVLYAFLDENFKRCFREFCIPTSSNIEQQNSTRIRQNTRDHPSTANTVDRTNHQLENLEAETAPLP

As for `CCC[C@H](c1nc2ccc(Br)cc2c(=O)n1CC)N1CCN[C@@H](CO)C1` [Example 60, 6-bromo-3-ethyl-2-((R)-1-((R)-3-(hydroxymethyl)piperazin-1-yl)butyl)quinazolin-4(3H)-one], the Ki in test [1] was less than 0.5 µM; on Human μ-opioid receptor, more than 0.5 µM.

Regarding `CCC[C@H](c1nc2ccc(Br)cc2c(=O)n1CC)N1CCN[C@@H](COC)C1` [Example 219, 6-bromo-3-ethyl-2-((R)-1-((R)-3-(methoxymethyl)piperazin-1-yl)butyl)quinazolin-4(3H)-one], the Ki in test [1] is less than 0.5 µM; on Human μ-opioid receptor, more than 0.5 µM.

For the compound `CCCC(c1nc2cc(C)c(Br)cc2c(=O)n1CC)N1C[C@@H](C)N[C@@H](C)C1` (stereo partly drawn) [Example 19, 6-bromo-2-(1-((3S,5R)-3,5-dimethylpiperazin-1-yl)butyl)-3-ethyl-7-methylquinazolin-4(3H)-one], the Ki is less than 0.5 µM in test [1] and more than 0.5 µM on Human μ-opioid receptor.

In the case of `CCC[C@H](c1nc2ccc(N3C[C@H](C)OC4(CCNCC4)C3)cc2c(=O)n1CC)N1C[C@@H](C)N[C@@H](C)C1` [Example 153, 2-((R)-1-((3S,5R)-3,5-dimethylpiperazin-1-yl)butyl)-3-ethyl-6-((S)-2-methyl-1-oxa-4,9-diazaspiro[5.5]undecan-4-yl)quinazolin-4(3H)-one], the Ki in test [1] (read-out: α2δ-1 binding) was 0.5 to 5 µM; at Human μ-opioid receptor (read-out: μ-binding), more than 0.5 µM.

As for `CCC[C@H](c1nc2cccnc2c(=O)n1CC)N1CCN[C@@H](C)C1` [Example 70, 3-Ethyl-2-((R)-1-((S)-3-methylpiperazin-1-yl)butyl)pyrido[3,2-d]pyrimidin-4(3H)-one], the results for the Ki (in test [1]; at Human μ-opioid receptor) were less than 0.5 µM and more than 0.5 µM, respectively.

As for `CCCC(c1nc2ccc(Br)c(F)c2c(=O)n1CC)N1CCNCC1` (stereo not shown) [Example 88, 6-bromo-3-ethyl-5-fluoro-2-(1-(piperazin-1-yl)butyl)quinazolin-4(3H)-one], the Ki in test [1] is less than 0.5 µM; at Human μ-opioid receptor, more than 0.5 µM.

Turning to `CCC[C@@H](c1nc2ccc(Br)cc2c(=O)n1CC)N1C[C@@H](C)N[C@@H](C)C1` [Example 30, 6-bromo-2-((S)-1-((3S,5R)-3,5-dimethylpiperazin-1-yl)butyl)-3-ethylquinazolin-4(3H)-one], the results for the Ki (in test [1]; on Human μ-opioid receptor) were 0.5 to 5 µM and more than 0.5 µM, respectively.

On to `CCC[C@H](c1nc2ccc(Br)cc2c(=O)n1CC)N1CCN[C@@H](C)C1` [Example 97, 6-Bromo-3-ethyl-2-((R)-1-((S)-3-methylpiperazin-1-yl)butyl)quinazolin-4(3H)-one], for which the Ki is less than 0.5 µM in test [1] and 0.1 to 0.5 µM on Human μ-opioid receptor.

As for `CCC[C@H](c1nc2ccc(F)c(F)c2c(=O)n1CC)N1CCN[C@@H](C)C1` [Example 218, 3-ethyl-5,6-difluoro-2-((R)-1-((S)-3-methylpiperazin-1-yl)butyl)quinazolin-4(3H)-one], the figures for the Ki (in test [1]; on Human μ-opioid receptor) were less than 0.5 µM and 0.1 to 0.5 µM, respectively.

As to `CCC[C@H](c1nc2ccc(Br)cc2c(=O)n1CC)N1C[C@H](C)N[C@@H](C)C1` [Example 228, 6-Bromo-2-((R)-1-((3S,5S)-3,5-dimethylpiperazin-1-yl)butyl)-3-ethylquinazolin-4(3H)-one], the Ki is more than 5 µM in test [1] and less than 0.1 µM on Human μ-opioid receptor.

Consider `CCCC(c1nc2ccc(N3CCC(N(C)C)CC3)cc2c(=O)n1CC)N1C[C@@H](C)N[C@@H](C)C1` (stereo partly drawn) [Example 139, 6-(4-(dimethylamino)piperidin-1-yl)-2-(1-((3S,5R)-3,5-dimethylpiperazin-1-yl)butyl)-3-ethylquinazolin-4(3H)-one], for which the Ki was less than 0.5 µM in test [1] and more than 0.5 µM on Human μ-opioid receptor.

For `CCC[C@@H](c1nc2ccc(Br)cc2c(=O)n1CC)N1CCN[C@@H](CO)C1` [Example 61, 6-bromo-3-ethyl-2-((S)-1-((R)-3-(hydroxymethyl)piperazin-1-yl)butyl)quinazolin-4(3H)-one], the Ki in test [1] is more than 5 µM; on Human μ-opioid receptor, more than 0.5 µM.

Consider `CCC[C@H](c1nc2ccc(F)cc2c(=O)n1CCC)N1CCN[C@@H](C)C1` [Example 202, 6-fluoro-2-((R)-1-((S)-3-methylpiperazin-1-yl)butyl)-3-propylquinazolin-4(3H)-one], for which the Ki in test [1] was less than 0.5 µM; at Human μ-opioid receptor, more than 0.5 µM.

For the compound `CCC[C@H](c1nc2c(F)cccc2c(=O)n1CC)N1CCN[C@@H](C)C1` [Example 203, 3-ethyl-8-fluoro-2-((R)-1-((S)-3-methylpiperazin-1-yl)butyl)quinazolin-4(3H)-one], the Ki in test [1] is less than 0.5 µM; at Human μ-opioid receptor it was more than 0.5 µM.

Turning to `CCCC(c1nc2ccc(CCO)cc2c(=O)n1CC)N1C[C@@H](C)N[C@@H](C)C1` (stereo partly drawn) [Example 173, 2-(1-((3S,5R)-3,5-Dimethylpiperazin-1-yl)butyl)-3-ethyl-6-(2-hydroxyethyl)quinazolin-4(3H)-one], the Ki was less than 0.5 µM in test [1] and more than 0.5 µM at Human μ-opioid receptor.

In the case of `CCCC(c1nc2ncc(Br)cc2c(=O)n1CC)N1C[C@@H](C)N[C@@H](C)C1` (stereo partly drawn) [Example 28, 6-bromo-2-(1-((3S,5R)-3,5-dimethylpiperazin-1-yl)butyl)-3-ethylpyrido[2,3-d]pyrimidin-4(3H)-one], the Ki is less than 0.5 µM in test [1] and more than 0.5 µM at Human μ-opioid receptor.

Turning to `CCCC(c1nc2ccc(N(C)C3CCN(C)CC3)cc2c(=O)n1CC)N1C[C@@H](C)N[C@@H](C)C1` (stereo partly drawn) [Example 143, 2-(1-((3S,5R)-3,5-dimethylpiperazin-1-yl)butyl)-3-ethyl-6-(methyl(1-methylpiperidin-4-yl)amino)quinazolin-4(3H)-one], the Ki in test [1] is less than 0.5 µM; at Human μ-opioid receptor (binding to μ-opioid receptor expressed as Ki, + also Ki>500 nM or inhibition between 1% and 50%, read-out: μ-binding), more than 0.5 µM.

On to `CCC[C@@H](c1nc2ccc(Br)cc2c(=O)n1CC)N1CCN[C@H](C)C1` [Example 100, 6-bromo-3-ethyl-2-((S)-1-((R)-3-methylpiperazin-1-yl)butyl)quinazolin-4(3H)-one], for which the figures for the Ki (in test [1]; at Human μ-opioid receptor) were more than 5 µM and more than 0.5 µM, respectively.

For the compound `CCC[C@@H](c1nc2ccccc2c(=O)n1CC)N1CCN[C@@H](C)C1` [Example 44, 3-ethyl-2-((S)-1-((S)-3-methylpiperazin-1-yl)butyl)quinazolin-4(3H)-one], the Ki in test [1] is more than 5 µM; on Human μ-opioid receptor, more than 0.5 µM.

For the compound `CCCC(c1nc2c(Cl)cc(F)cc2c(=O)n1CC)N1CCNCC1` (stereo not shown) [Example 90, 8-chloro-3-ethyl-6-fluoro-2-(1-(piperazin-1-yl)butyl)quinazolin-4(3H)-one], the results for the Ki (in test [1]; on Human μ-opioid receptor) were more than 5 µM and 0.1 to 0.5 µM, respectively.

As for `CCC[C@@H](c1nc2ccc(Br)cc2c(=O)n1CC)[C@H]1CCN[C@@H](C)C1` [Example 190, 6-Bromo-3-ethyl-2-((R)-1-((2S,4S)-2-methylpiperidin-4-yl)butyl)quinazolin-4(3H)-one], the results for the Ki (in test [1]; at Human μ-opioid receptor) were more than 5 µM and more than 0.5 µM, respectively.

As for `CCC[C@H](c1nc2ccc(Cl)cc2c(=O)n1CC)N1CCN[C@H](CF)C1` [Example 229, 6-Chloro-3-ethyl-2-((R)-1-((S)-3-(fluoromethyl)piperazin-1-yl)butyl)quinazolin-4(3H)-one], the Ki in test [1] is less than 0.5 µM; at Human μ-opioid receptor, more than 0.5 µM.

As for `COCCn1c(C(CC(C)C)N2C[C@@H](C)N[C@@H](C)C2)nc2ccccc2c1=O` (stereo partly drawn) [Example 114, 2-(1-((3S,5R)-3,5-dimethylpiperazin-1-yl)-3-methylbutyl)-3-(2-methoxyethyl)quinazolin-4(3H)-one], the Ki is more than 5 µM in test [1] (read-out: α2δ-1 binding) and more than 0.5 µM at Human μ-opioid receptor (read-out: μ-binding).

As for `CCCC(c1nc2ccc(Br)c(Cl)c2c(=O)n1CC)N1CCNCC1` (stereo not shown) [Example 91, 6-bromo-5-chloro-3-ethyl-2-(1-(piperazin-1-yl)butyl)quinazolin-4(3H)-one], the Ki is less than 0.5 µM in test [1] and 0.1 to 0.5 µM at Human μ-opioid receptor.

In the case of `CCC[C@@H](c1nc2ccc(Cl)cc2c(=O)n1CC)N1CCN[C@@H](C)C1` [Example 104, 6-chloro-3-ethyl-2-((S)-1-((S)-3-methylpiperazin-1-yl)butyl)quinazolin-4(3H)-one], the Ki was more than 5 µM in test [1] and more than 0.5 µM on Human μ-opioid receptor.

`CCC[C@@H](c1nc2cccnc2c(=O)n1CC)N1CCN[C@@H](C)C1` [Example 71, 3-ethyl-2-((S)-1-((S)-3-methylpiperazin-1-yl)butyl)pyrido[3,2-d]pyrimidin-4(3H)-one]: the Ki in test [1] was more than 5 µM; on Human μ-opioid receptor, more than 0.5 µM.

As for `CCCC(c1nc2ccc(N(C)Cc3ccccc3)cc2c(=O)n1CC)N1C[C@@H](C)N[C@@H](C)C1` (stereo partly drawn) [Example 144, 6-(benzyl(methyl)amino)-2-(1-((3S,5R)-3,5-dimethylpiperazin-1-yl)butyl)-3-ethylquinazolin-4(3H)-one], the Ki in test [1] is less than 0.5 µM; at Human μ-opioid receptor it was more than 0.5 µM.

In the case of `CCC[C@H](c1nc2c(F)cc(F)cc2c(=O)n1CC)N1CCNCC1` [Example 200, (R)-3-ethyl-6,8-difluoro-2-(1-(piperazin-1-yl)butyl)quinazolin-4(3H)-one], the Ki in test [1] was less than 0.5 µM; at Human μ-opioid receptor, 0.1 to 0.5 µM.

For the compound `CCC[C@H](c1nc2c(F)cc(Br)cc2c(=O)n1CC)N1CCNCC1` [Example 96, (R)-6-bromo-3-ethyl-8-fluoro-2-(1-(piperazin-1-yl)butyl)quinazolin-4(3H)-one], the results for the Ki (in test [1]; at Human μ-opioid receptor) were less than 0.5 µM and 0.1 to 0.5 µM, respectively.

In the case of `CCCC(c1nc2ccccc2c(=O)n1CCN(C)C)N1C[C@@H](C)N[C@@H](C)C1` (stereo partly drawn) [Example 128, 3-(2-(Dimethylamino)ethyl)-2-(1-((3S,5R)-3,5-dimethylpiperazin-1-yl)butyl)quinazolin-4(3H)-one], the Ki in test [1] (read-out: α2δ-1 binding) is 0.5 to 5 µM; on Human μ-opioid receptor (read-out: μ-binding) it was more than 0.5 µM.

On to `CCCC(c1nc2cc(F)c(Br)cc2c(=O)n1CC)N1C[C@@H](C)N[C@@H](C)C1` (stereo partly drawn) [Example 18, 6-bromo-2-(1-((3S,5R)-3,5-dimethylpiperazin-1-yl)butyl)-3-ethyl-7-fluoroquinazolin-4(3H)-one], for which the Ki in test [1] is less than 0.5 µM; on Human μ-opioid receptor, more than 0.5 µM.

Regarding `CCCC(c1nc2ccc(CN(C)CCC(C)C)cc2c(=O)n1CC)N1C[C@@H](C)N[C@@H](C)C1` (stereo partly drawn) [Example 185, 2-(1-((3S,5R)-3,5-dimethylpiperazin-1-yl)butyl)-3-ethyl-6-((isopentyl(methyl)amino)methyl)quinazolin-4(3H)-one], the Ki in test [1] is less than 0.5 µM; at Human μ-opioid receptor, more than 0.5 µM.
